Where a SMILES comes first, the peptide text is derived from it. [ ]: non-standard residue; d: D form. The star is where a group is joined. Furoyl(5-pyrazol-1-ylmethyl) = O=C(c1ccc(Cn2cccn2)o1)*; Phe(4-F) = N[C@@H](Cc1ccc(F)cc1)C(=O)O; Picolinoyl(6-Me) = Cc1cccc(C(=O)*)n1; X13 = CN1CCN(Cc2ccc(C(=O)*)o2)CC1; X1 = Cc1cnn(Cc2ccc(C(=O)*)o2)c1; X11 = CCN(CC)Cc1ccc(C(=O)*)o1; X12 = O=C(c1csc(-c2cccs2)n1)*; X14 = O=C(c1csc(-c2ccsc2)n1)*; X15 = CCOc1ccc(CC(=O)*)cc1OCC; X7 = CC(C)COc1ccc(CC(=O)*)cc1; X4 = O=C(c1ccc(Cn2ccnc2)o1)*; Picolinoyl = O=C(c1ccccn1)*; X16 = CCOc1ccc(CC(=O)*)cc1; X9 = CCCOc1ccc(CC(=O)*)cc1; X10 = CCOc1cccc(C(=O)*)n1; X8 = COc1cccc(C(=O)*)n1
Key:
[1] = biological target: Cyclin-dependent kinase 4/cyclin D1 (Homo sapiens, UniProt P24385); assay: Inhibition of human recombinant CDK4/cyclin D1 using fluoresceinyl-Ahx-Pro-Val-Lys-Arg-Arg-Leu-(3ClPhe)-Gly as substrate after 45 mins by fluorescence polarization assay; assay type: protein-complex assay
CDK2/Cyclin A2 = CDK2/Cyclin A2 (Homo sapiens, UniProt P24941); assay: Inhibition of human recombinant CDK2/cyclin A using fluoresceinyl-Ahx-Pro-Val-Lys-Arg-Arg-Leu-Phe-Gly as substrate after 45 mins by fluorescence polarization assay; assay type: protein-complex assay

Chain of Cyclin-dependent kinase 4/cyclin D1 (P11802 whole entry): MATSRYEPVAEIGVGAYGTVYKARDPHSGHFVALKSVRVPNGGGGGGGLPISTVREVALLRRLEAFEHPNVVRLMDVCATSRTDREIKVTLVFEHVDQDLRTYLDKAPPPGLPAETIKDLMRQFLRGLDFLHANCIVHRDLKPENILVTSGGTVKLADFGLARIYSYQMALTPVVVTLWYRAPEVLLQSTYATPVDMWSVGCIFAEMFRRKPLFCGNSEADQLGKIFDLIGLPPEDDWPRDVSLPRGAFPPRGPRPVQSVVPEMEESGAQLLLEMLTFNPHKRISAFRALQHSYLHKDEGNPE
Chain of Cyclin-dependent kinase 4/cyclin D1 (P24385 whole entry): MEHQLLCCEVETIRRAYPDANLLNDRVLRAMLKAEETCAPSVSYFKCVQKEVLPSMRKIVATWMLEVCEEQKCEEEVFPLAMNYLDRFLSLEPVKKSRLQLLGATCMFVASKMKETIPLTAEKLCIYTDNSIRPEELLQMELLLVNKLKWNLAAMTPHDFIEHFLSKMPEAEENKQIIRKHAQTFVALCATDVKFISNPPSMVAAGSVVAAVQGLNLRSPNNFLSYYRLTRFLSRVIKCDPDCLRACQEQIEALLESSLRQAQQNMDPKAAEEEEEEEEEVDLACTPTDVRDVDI

Structure (SMILES)	IC50 [1] [µM]	IC50 (CDK2/Cyclin A2) [µM]
CC[C@H](C)[C@H](NC(=O)[C@H](CC(C)C)NC(=O)[C@H](CCCNC(=N)N)NC(=O)c1csc(-c2cccs2)n1)C(=O)N[C@@H](Cc1ccccc1)C(=O)O (X12-RLIF-OH)	> 180	> 180
COc1cccc(C(=O)N[C@@H](CCCN=C(N)N)C(=O)N[C@@H](CC(C)C)C(=O)N[C@@H](CC(N)=O)C(=O)N[C@@H](Cc2ccc(F)cc2)C(=O)O)n1 (X8-RLN[Phe(4-F)]-OH)	36.9	36.4
CC[C@H](C)[C@H](NC(=O)[C@H](CC(C)C)NC(=O)[C@H](CCCNC(=N)N)NC(=O)c1ccc(CN2CCN(C)CC2)o1)C(=O)N[C@@H](Cc1ccccc1)C(=O)O (X13-RLIF-OH)	43.2	50.3
CC[C@H](C)[C@H](NC(=O)[C@H](CC(C)C)NC(=O)[C@H](CCCN=C(N)N)NC(=O)c1ccc(Cn2cccn2)o1)C(=O)N[C@@H](Cc1ccccc1)C(=O)O ({Furoyl(5-pyrazol-1-ylmethyl)}-RLIF-OH)	> 100	> 100
CCOc1ccc(CC(=O)N[C@@H](CCCNC(=N)N)C(=O)N[C@@H](CC(C)C)C(=O)N[C@@H](CC(N)=O)C(=O)N[C@@H](Cc2ccc(F)cc2)C(=O)O)cc1OCC (X15-RLN[Phe(4-F)]-OH)	3	5.2
CCOc1ccc(CC(=O)N[C@@H](CCCN=C(N)N)C(=O)N[C@@H](CC(C)C)C(=O)N[C@@H](CC(N)=O)C(=O)N[C@@H](Cc2ccc(F)cc2)C(=O)O)cc1 (X16-RLN[Phe(4-F)]-OH)	> 100	> 100
CC[C@H](C)[C@H](NC(=O)[C@H](CC(C)C)NC(=O)[C@H](CCCN=C(N)N)NC(=O)c1ccc(Cn2ccnc2)o1)C(=O)N[C@@H](Cc1ccccc1)C(=O)O (X4-RLIF-OH)	159	> 100
CC[C@H](C)[C@H](NC(=O)[C@H](CC(C)C)NC(=O)[C@H](CCCN=C(N)N)NC(=O)c1csc(-c2ccsc2)n1)C(=O)N[C@@H](Cc1ccccc1)C(=O)O (X14-RLIF-OH)	> 180	56.2
CCCOc1ccc(CC(=O)N[C@@H](CCCN=C(N)N)C(=O)N[C@@H](CC(C)C)C(=O)N[C@@H](CC(N)=O)C(=O)N[C@@H](Cc2ccc(F)cc2)C(=O)O)cc1 (X9-RLN[Phe(4-F)]-OH)	> 50	> 100
CCOc1cccc(C(=O)N[C@@H](CCCNC(=N)N)C(=O)N[C@@H](CC(C)C)C(=O)N[C@@H](CC(N)=O)C(=O)N[C@@H](Cc2ccc(F)cc2)C(=O)O)n1 (X10-RLN[Phe(4-F)]-OH)	> 100	39.7
CC[C@H](C)[C@H](NC(=O)[C@H](CC(C)C)NC(=O)[C@H](CCCNC(=N)N)NC(=O)c1cccc(C)n1)C(=O)N[C@@H](Cc1ccccc1)C(=O)O ({Picolinoyl(6-Me)}-RLIF-OH)	85.7	> 100
CC(C)C[C@H](NC(=O)[C@H](CCCN=C(N)N)NC(=O)c1ccccn1)C(=O)N[C@@H](CC(N)=O)C(=O)N[C@@H](Cc1ccc(F)cc1)C(=O)O (Picolinoyl-RLN[Phe(4-F)]-OH)	48.4	29.2
CC[C@H](C)[C@H](NC(=O)[C@H](CC(C)C)NC(=O)[C@H](CCCNC(=N)N)NC(=O)c1ccc(CN(CC)CC)o1)C(=O)N[C@@H](Cc1ccccc1)C(=O)O (X11-RLIF-OH)	41.9	43.5
CC[C@H](C)[C@H](NC(=O)[C@H](CC(C)C)NC(=O)[C@H](CCCN=C(N)N)NC(=O)c1ccc(Cn2cc(C)cn2)o1)C(=O)N[C@@H](Cc1ccccc1)C(=O)O (X1-RLIF-OH)	> 180	> 100
CC(C)COc1ccc(CC(=O)N[C@@H](CCCNC(=N)N)C(=O)N[C@@H](CC(C)C)C(=O)N[C@@H](CC(N)=O)C(=O)N[C@@H](Cc2ccc(F)cc2)C(=O)O)cc1 (X7-RLN[Phe(4-F)]-OH)	> 100	> 100
